The values below come from publication doi:10.1101/2025.11.28.691146v1 (biorxiv, 2025).

For orientation: Kd means the constant that tells how readily two partners part at equilibrium. Low readings indicate tighter binding, high ones weaker binding.

Experiment [1] concerns the target T1, McrA (Streptomyces lavendulae, UniProt P43485).
T1 sequence (P43485 1-448): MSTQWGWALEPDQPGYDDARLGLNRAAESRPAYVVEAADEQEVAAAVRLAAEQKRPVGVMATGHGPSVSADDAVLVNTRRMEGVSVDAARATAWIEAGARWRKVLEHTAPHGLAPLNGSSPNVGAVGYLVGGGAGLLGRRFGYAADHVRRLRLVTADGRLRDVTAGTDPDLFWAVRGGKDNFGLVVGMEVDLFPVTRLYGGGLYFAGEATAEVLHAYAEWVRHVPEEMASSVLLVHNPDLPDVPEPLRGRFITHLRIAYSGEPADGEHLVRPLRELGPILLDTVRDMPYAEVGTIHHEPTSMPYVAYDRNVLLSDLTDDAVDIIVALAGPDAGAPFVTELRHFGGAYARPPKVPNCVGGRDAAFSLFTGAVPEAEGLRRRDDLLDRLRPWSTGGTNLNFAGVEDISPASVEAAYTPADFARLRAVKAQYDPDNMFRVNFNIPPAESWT
As to the kind of experiment: thermal shift, label-free intrinsic fluorescence. In kind it is binding. To be noted: read-out: dTm at 1 mM.

For experiment [2], the target named is T1, McrA. As to the kind of experiment: microscale thermophoresis. In kind it is binding. (In general: Microscale thermophoresis detects binding through changes in fluorescence in a small temperature gradient.)

Molecules are shown by their SMILES.

On to `CO[C@@]12[C@H](COC(N)=O)C3=C(C(=O)C(C)=C(N)C3=O)N1C[C@@H]1N[C@@H]12` [mitomycin C], for which the ΔTm at 1000 µM at McrA [1] amounted to 0.5 °C. On McrA [2], this molecule registered a Kd of 15.9 ± 4.5 µM.
